Reference: a compilation of properties of binary mixtures (doi:10.1021/acs.jced.0c00740)

Test: xn = mol fraction of the nth substance listed
Conditions: 101 kPa

C[NH+](C)C.O=S(=O)([N-]S(=O)(=O)C(F)(F)F)C(F)(F)F + N#CCCCC#N
x1 = 0.2167
Conditions | viscosity [mPa·s]
278 K | 23
283 K | 18.87
293 K | 13.35
303 K | 9.89
308 K | 8.64
313 K | 7.609
323 K | 6.028
328 K | 5.417
333 K | 4.899
338 K | 4.457
343 K | 4.07
348 K | 3.741

C[S+](C)C.O=S(=O)([N-]S(=O)(=O)C(F)(F)F)C(F)(F)F + N#CCCCC#N
x1 = 0.2085
Conditions | viscosity [mPa·s]
283 K | 18.02
288 K | 15.07
293 K | 12.76
298 K | 10.92
308 K | 8.25
313 K | 7.26
323 K | 5.744
343 K | 3.871
353 K | 3.283
